Measurements as given in patent publication US11420181B2, “Methods for suppression of ammonia formation from staphylococcus-xylosus and staphylococcus-cohnii” (Dow Global Technologies LLC, priority 2016, dated 2022).

Tests used:
[1] = Barrel test experiments on used broiler litter, Examples 5-8; conditions: used rice hull litter in tubs, vs untreated control
Description: Used litter (rice hulls which may also contain poultry manure, moisture, feed residue and/or feathers) were acquired from a commercial broiler chicken farm and transported in plastic barrels. Twenty three kilograms of litter were weighed into 0.4 m^2 plastic tubs to cover the tubs to a depth of approximately 10 cm. The tubs were stored uncovered in a poultry rearing facility, and environmental conditions were controlled to mimic the conditions that would be experienced in a commercial broiler house (temperature around 32° C.).
Tubs were treated with NaHSO4 at a dose equivalent to 1 wt % Ammonia was then measured for 35 days.
Tubs were treated in two steps. A dose equivalent to 1 wt % of NaHSO4 as Acidifier was added to the tubs. After 24 hours, a dose equivalent to 3.2 wt % of Na2EDTA was added and dispersed. Ammonia was then measured for 35 days.
Tubs were treated in two steps. A dose equivalent to 1 wt % of NaHSO4 as Acidifier was added to the tubs. After 24 hours, a dose equivalent to 3.2 wt % of K2EDTA was added as an aqueous solution. Ammonia was then measured for 35 days.
Tubs were treated in two steps. A dose equivalent to 1.23 wt % of EDTA Acid was added to the tubs. After 24 hours, a dose equivalent to 3.2 wt % of Na2EDTA was added and dispersed. Ammonia was then measured for 35 days.

[2] = tested on: Staphylococcus-xylosus/Staphylococcus-cohnii; assay: Lab headspace ammonia test on ground straw with synthetic poultry urine, Example 4; format: cell-based
Description: (§1) Synthetic Poultry Urine Preparation. In these Examples, synthetic urine was prepared as follows for each 100 g of synthetic poultry urine needed. The amounts can be scaled up or down as needed. The following components were added to a sterilized bottle: Urea (USP Grade): 0.43 g, Ammonia: 0.46 g, K3PO4 (USP grade): 6.8 g, Milli-Q water: 83.52 g. The bottle was capped and placed on a bottle roller at ambient temperature for 1 to 3 hours. The pH of the solution was measured to confirm the pH is between 13 and 14.
(§2) Bacteria Preparation. In these Examples, the Staphylococcus-cohnii and the Staphylococcus-cohnii/Staphylococcus-xylosus bacteria strains used were environmental isolates from poultry manure and cat litter respectively. As used herein, “Staphylococcus-cohnii/Staphylococcus-xylosus” refers to a bacteria strain that is an environmental isolate from cat feces that through DNA sequencing has been identified to be genetically similar to both Staphylococcus-cohnii and Staphylococcus-xylosus. The identifications were determined by DNA sequencing at an external lab with genus confidence level.
(§3) The bacteria strains were isolated on a sterile tryptic soy agar plate, grown for 2 days in a 30 degrees ° C. incubator and stored in a refrigerator. A fresh plate was prepared every 2 weeks.
The bacteria were grown the day before the start of the experiments by taking a loopful of the bacteria from the agar plate with a 10 uL loop and immersing it in 10 mL sterile tryptic soy broth filling half of the container. All bacteria used in the Examples are aerobic and therefore need air on top of the growth medium. […] The count of the bacteria in the growth media was determined by the serial dilutions method, where 10 serial dilutions of the growth medium in sterile Physiological Buffered Saline (PBS) solution are performed with 10× dilution each time. […] The numbers of colonies were counted on the dilution plate that had between 30 and 300 colony forming units (CFU) on it. The number of colony forming units in the original growth media was then determined by back-calculating the number of dilutions. […]

Staphylococcus-cohnii = assay: Lab headspace ammonia test on ground straw with synthetic poultry urine, Example 3; format: cell-based
Description: as §1, §2, §3
The bacteria were grown the day before the start of the experiments by taking a loopful of the bacteria from the agar plate with a 10 uL loop and immersing it in 10 mL sterile tryptic soy broth filling half of the container. All bacteria used in the Examples are aerobic and therefore need air on top of the growth medium. The vials were incubated at 30 degrees C. in a shaking incubator at 100 rpm for 24 hours. The count of the bacteria in the growth media was determined by the serial dilutions method, where 10 serial dilutions of the growth medium in sterile Physiological Buffered Saline (PBS) solution are performed with 10× dilution each time. Each dilution was plated twice using 100 μL of growth media for each plate. The numbers of colonies were counted on the dilution plate that had between 30 and 300 colony forming units (CFU) on it. The number of colony forming units in the original growth media was then determined by back-calculating the number of dilutions. […] All pipettes, containers, tips, spoons etc. equipment used for these experiments were sterile in order to prevent contamination with other bacteria. Litters, treatments and chemicals used for preparing synthetic urine were used as-is, without sterilization.
Preparation of grinded straw bedding. A sterilized lab blender was loaded with straw and grinded at pulsed, high setting for 15-45 seconds. Then a new batch of straw was loaded to the blender. […]

[3] = 1 day after treatment, vs untreated control
[4] = 3 days after treatment, untreated control 200+ ppm (above tube limit)

Row | Compound | % improvement in headspace ammonia ([1]; 3 days after treatment) | % improvement in headspace ammonia ([1]; 7 days after treatment) | % improvement in headspace ammonia ([1]; 14 days after treatment) | % improvement in headspace ammonia ([1]; 21 days after treatment) | % improvement in headspace ammonia ([1]; 28 days after treatment) | % improvement in headspace ammonia [2, 3] | % improvement in headspace ammonia (Staphylococcus-cohnii; [3]) | % improvement in headspace ammonia (Staphylococcus-cohnii; [4]) | % improvement in headspace ammonia [2, 4]
1 | O=S(=O)([O-])O.[Na+] [1 wt % NaHSO4, NaHSO4] | 92% | 74% | 37% | −37% | −16% |  |  |  | 
2 | O=C(O)CN(CCN(CC(=O)O)CC(=O)O)CC(=O)O.[K].[K] [2.5% K2EDTA sprayed on top, dipotassium ethylenediaminetetraacetic acid] |  |  |  |  |  | 57% | 64% | 5+ % | 
3 | O=C(O)CN(CCN(CC(=O)O)CC(=O)O)CC(=O)O.[K].[K] [2.5% K2EDTA, dipotassium ethylenediaminetetraacetic acid] |  |  |  |  |  | 73% | 64% | 8+ % | 12+ %
